Reference: patent US20050118664A1, “Fluorogenic protease substrates” (priority 2002, published 2005)
Where a SMILES comes first, the peptide text is derived from it. The star is where a group is joined. X1 = CN(C)c1ccc2c(-c3cc(NC(=O)C*)ccc3C(=O)[O-])c3ccc(=[N+](C)C)cc-3oc2c1

Tests used:
PfSUB-1 [1] = target: T1, PfSUB-1 (Plasmodium falciparum, UniProt O61142); test: Multi-well fluorescence assay of PfSUB-1 activity with or without inhibitor; assay type: biochemical
T1 construct: made in house; host or cells: baculovirus/insect cell system
T1 sequence (O61142 220-690): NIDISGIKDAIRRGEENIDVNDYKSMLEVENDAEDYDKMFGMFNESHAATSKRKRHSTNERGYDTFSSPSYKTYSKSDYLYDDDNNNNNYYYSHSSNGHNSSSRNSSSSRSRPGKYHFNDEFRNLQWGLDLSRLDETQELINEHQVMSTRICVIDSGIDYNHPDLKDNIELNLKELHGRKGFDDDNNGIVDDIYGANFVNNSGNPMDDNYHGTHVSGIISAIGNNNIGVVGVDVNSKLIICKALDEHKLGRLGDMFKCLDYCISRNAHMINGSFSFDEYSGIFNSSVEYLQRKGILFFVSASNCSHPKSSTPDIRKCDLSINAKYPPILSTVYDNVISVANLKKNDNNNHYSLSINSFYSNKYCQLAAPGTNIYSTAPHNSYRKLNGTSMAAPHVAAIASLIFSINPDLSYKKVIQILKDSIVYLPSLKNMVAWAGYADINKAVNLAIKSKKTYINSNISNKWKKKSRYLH
Method: Purified recombinant PfSUB-1 at a range of concentrations in digestion buffer was dispensed into 50 μl aliquots in wells of white 96-well microtitre plates (FluoroNunc, NUNC). […] Plates were sealed and incubated at 37° C. for 18 h before being read on a Perkin Elmer LS-50B Luminescence spectrometer fitted with a LS50B WPR multi-plate reader accessory. Measurements were performed at an excitation wavelength of 552 nm, slit width 4 nm, and an emission wavelength of 580 nm, slit width 2.5 nm. Data collection was managed using Perkin Elmer FL WinLab software.

PfSUB-1 [2] = target: T1, PfSUB-1; settings: from reference [4]; cited from earlier work
PfSUB-1 [3] = target: T1, PfSUB-1; test: Protease digestion of fluorogenic substrate with recombinant PfSUB-1, fluorescence readout; assay type: biochemical
Method: (§1) All dye concentrations were determined from the absorption at 528 nm, with ε 52,000 M^−1cm^−1 [5]. Solutions of pepF1-R and its isomer derived from 5-IATR were prepared at ˜4 μM by dilution from stock DMSO solutions into digestion buffer (20 mM Tris, 50 mM NaCl, 12 mM CaCl2, 0.05% NP-40 (w/v), pH 7.6). It was necessary to include NP-40 detergent (Boehringer Mannheim) in all buffers containing the labelled peptides to avoid non-specific adsorption to glass and plasticware. Portions (4 ml) of each solution were treated with an aliquot of pronase (16 μl of 1 mg ml^−1 in the same buffer) and incubated at room temperature for 30 min. Absorbance spectra of these solutions and of the corresponding labelled peptides prior to pronase treatment were recorded (Beckman DU640 spectrophotometer).
(§2) For protease digestion experiments, pepF1-R was diluted directly from DMSO stocks into digestion buffer (20 mM Tris-HCl pH 7.6, 50 mM NaCl, 12 mM CaCl2, ±0.05% w/v Nonidet P40). The DMSO concentration in digestion experiments was maintained below 1% (v/v).
A sample of pepF1-R digested with PfSUB-1 was subjected to RP-HPLC-fractionation (Vydac 4.6 mm×25 cm C18 reversed-phase column, eluted at 1 ml min^−1 with a 4.5-58.5% (v/v) gradient of acetonitrile in 0.1% TFA). In addition to a small peak at 38.5 min corresponding to residual pepF1-R, two large new fluorescent peaks of equal height were evident, with retention times of 29.6 and 34.0 min.
(§3) For these measurements, the compound was diluted 200-fold from a 230 μM stock solution in DMSO into 20 mM Tris-HCl pH 7.6. Identical spectra were obtained upon dilution into 20 mM acetate buffer, pH 5.0, or 20 mM ethanolamine pH 10.0. All buffer solutions contained 0.05% NP-40 detergent (w/v).

pronase = test: Protease digestion of fluorogenic substrate with pronase, fluorescence readout; assay type: biochemical
Method: as §1, §2, §3

PfSUB-1 [4] = target: T1, PfSUB-1; settings: recombinant PfSUB-1 and authentic parasite-derived enzyme; reference [4]; cited from earlier work

## O=C(O)c1cc[c]([Hg+])cc1.[OH-] [pHMB, p-hydroxymercuribenzoate]
PfSUB-1 [1]; PfSUB-1 pre-treated with 1 mM inhibitor
  fluorescence increase of pepF1-R with inhibitor-pre-treated PfSUB-1: no fluorescence increase
PfSUB-1 [1]; multi-well assay, 0.5 μl 100 mM pHMB per 50 μl well, 30 min pre-mix, 37° C. 18 h
  effect of inhibitor on PfSUB-1-dependent fluorescence increase of pepF1-R: virtually completely ablated
PfSUB-1 [2]
  inhibition of PfSUB-1 (in words): potent inhibitor

## CC[C@H](C)[C@H](NC(=O)[C@H](CC(=O)O)NC(=O)[C@@H](NC(=O)[C@H](CC(N)=O)NC(=O)[C@H](CC(=O)O)NC(=O)[C@H](C)NC(=O)[C@H](CO)NC(=O)[C@@H](NC(=O)[C@H](CSCC(=O)Nc1ccc(C(=O)[O-])c(-c2c3ccc(=[N+](C)C)cc-3oc3cc(N(C)C)ccc23)c1)NC(C)=O)C(C)C)[C@@H](C)CC)C(=O)N[C@@H](CSCC(=O)Nc1ccc(C(=O)[O-])c(-c2c3ccc(=[N+](C)C)cc-3oc3cc(N(C)C)ccc23)c1)C(=O)O [pepF1-R] (Ac-C(X1)VSADNIDIC(X1)-OH)
PfSUB-1 [3]; addition of recombinant PfSUB-1, 20 mM Tris-HCl pH 7.6, 0.05% NP-40, ex 552 nm, em 580 nm
  increase in fluorescence on cleavage: greater than 25 fold
PfSUB-1 [3]; digested with PfSUB-1
  cleavage site of substrate (RP-HPLC / mass spectrometry of products): cleavage at the Asp-Asn bond
PfSUB-1 [3]; purified recombinant PfSUB-1, digestion buffer
  fluorescence change on incubation with protease (in words): dramatic, time-dependent increase in fluorescence
pronase; addition of pronase, 20 mM Tris-HCl pH 7.6, 0.05% NP-40, ex 552 nm, em 580 nm
  increase in fluorescence on cleavage: greater than 25 fold
pronase; pronase, digestion buffer
  fluorescence change on incubation with protease (in words): dramatic, time-dependent increase in fluorescence
other
  solubility: ≤ 50 µM

## Ac-LVSADNIDIS—OH: N-acetylated synthetic decapeptide based on the PfSUB-1 autocatalytic cleavage site (Ac-LVSADNIDIS-OH)
PfSUB-1 [4]
  cleavage by PfSUB-1 (in words): cleaved at the Asp-Asn bond
